Test results taken from US20260355191A1, “PAN-RAS INHIBITOR COMPOUND” (ADLAI NORTYE BIOPHARMA CO., LTD., priority 2024, published 2026).

How the values were obtained:
AsPC-1 = test: In vitro cell proliferation inhibition assay (CellTiter-Glo), AsPC-1; type: cell-based; conditions: AsPC-1, KRAS (p.G12D), 72 h; read-out: IC50, antiproliferative activity
Method: (§1) Due to the diversity of RAS mutations, and in order to evaluate the activity of the compounds in different RAS mutant cell lines, we selected cell lines with KRAS^G12D, KRAS^G12V, KRAS^G12c, NRAS^q61L, KRAS^G13D, KRAS^G12R, and KRAS^WT mutations (see the table below for in vitro activity evaluation and screening of the compounds.
(§2) According to the doubling time of different cell lines, different numbers of cells (1000-5000 cells/well) were seeded into 96-well plates containing 180 μL of the corresponding culture medium, and incubated overnight in a cell incubator at 37 °C with 5% C02. On the following day, the test compounds were pre-diluted in the culture medium in a 3-fold serial dilution series, with the highest concentration being […], resulting in 10 concentration gradients in total. Subsequently, 20 μL of culture medium containing the compounds at different concentrations was added to the cells in the 96-well plates, ensuring a final compound concentration of up to 10 μM, with 10 concentrations in 3-fold dilution. After co-incubation of the cells with the compounds for 72 h, the 96-well plates were removed from the incubator and equilibrated at room temperature for 30 min. Then, 25 μL of CellTiter-Glo® Reagent was added to each well and mixed thoroughly, followed by incubation at room temperature for 10 min. Subsequently, 100 μL of the samples was transferred to white 96-well plates (OptiPlate™-96, PerkinElmer), and […] signal values were read using a multifunctional microplate reader (SpectraMax i3x, Molecular Devices). The signal values were then normalized, and curve fitting was performed using a four-parameter logistic regression equation to calculate the half maximal inhibitory concentration (IC50) of the compounds against the cell lines.

SW480 = test: In vitro cell proliferation inhibition assay (CellTiter-Glo), SW480; type: cell-based; conditions: SW480, KRAS (p.G12V), 72 h; read-out: IC50, antiproliferative activity
Method: as §1, §2

H358 = test: In vitro cell proliferation inhibition assay (CellTiter-Glo), H358; type: cell-based; conditions: H358, KRAS (p.G12C), 72 h; read-out: IC50, antiproliferative activity
Method: as §1, §2

HepG2 = test: In vitro cell proliferation inhibition assay (CellTiter-Glo), HepG2; type: cell-based; conditions: HepG2, NRAS (p.Q61L), 72 h; read-out: IC50, antiproliferative activity
Method: as §1, §2

HCT116 = test: In vitro cell proliferation inhibition assay (CellTiter-Glo), HCT116; type: cell-based; conditions: HCT116, KRAS (p.G13D), 72 h; read-out: IC50, antiproliferative activity
Method: as §1, §2

PSN1 = test: In vitro cell proliferation inhibition assay (CellTiter-Glo), PSN1; type: cell-based; conditions: PSN1, KRAS (p.G12R), 72 h; read-out: IC50, antiproliferative activity
Method: as §1, §2

MV411 = test: In vitro cell proliferation inhibition assay (CellTiter-Glo), MV411; type: cell-based; conditions: MV411, KRAS wild type, 72 h; read-out: IC50, antiproliferative activity
Method: as §2

cyclophilin A (CypA) = biological target: T1, cyclophilin A (CypA) (Homo sapiens, UniProt P62937); test: Binary complex binding assay (BLI); conditions: His-tagged CypA, pH 7.4, 1:1 binding model; for Kd: read-out: KD1 (binary complex equilibrium dissociation constant); for kon: read-out: ka (association rate constant); for koff: read-out: kdis (dissociation rate constant)
T1 construct: purchased R&D 3589-CAB
T1 sequence (P62937 whole entry): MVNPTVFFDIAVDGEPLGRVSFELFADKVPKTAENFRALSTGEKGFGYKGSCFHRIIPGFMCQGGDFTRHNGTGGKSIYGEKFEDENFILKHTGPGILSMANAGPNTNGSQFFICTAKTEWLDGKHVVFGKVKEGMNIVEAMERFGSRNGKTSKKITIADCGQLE
Method: To evaluate the binding ability of the test compounds to cyclophilin A (CypA), we employed a Bio-layer Interferometry (BLI) method (Octet R8) to monitor the binding kinetics between the compounds and CypA, and to calculate the affinity of the binary complex. His-tagged CypA protein (3589-CAB, R&D) was first immobilized on an NTA sensor, followed by baseline equilibration for 120 seconds in the assay buffer (20 mM HEPES, pH 7.4, 150 mM NaCl, 5 mM MgCl2, 1 mM TCEP, 0.01% Tween 20). The sensor was then exposed to buffer solutions containing different concentrations of the compounds to monitor the association process in real time. When the high-concentration compound binding reached a plateau, the sensor was transferred to compound-free buffer to measure the dissociation process. To ensure data accuracy, DMSO normalization was performed, non-specific binding was minimized by buffer optimization, and negative and positive controls were set to verify assay specificity. Data were processed using Octet Analysis Studio 13.0, analyzed using a 1:1 binding model, and the association rate constant (ka), dissociation rate constant (kdis), and equilibrium dissociation constant (KD1) were calculated.

[1] = biological target: ternary complex comprising RAS and CypA; KRAS^G12D (Homo sapiens, UniProt P01116+P62937, G12D); test: Ternary complex binding assay (BLI), KRAS G12D; conditions: GMPPNP-loaded KRAS^G12D, fixed concentration of CypA, pH 7.4, read-out: KD2 (ternary complex equilibrium dissociation constant)
Sequence of ternary complex comprising RAS and CypA; KRAS^G12D (P01116 1-188 isoform P01116-2 G12D): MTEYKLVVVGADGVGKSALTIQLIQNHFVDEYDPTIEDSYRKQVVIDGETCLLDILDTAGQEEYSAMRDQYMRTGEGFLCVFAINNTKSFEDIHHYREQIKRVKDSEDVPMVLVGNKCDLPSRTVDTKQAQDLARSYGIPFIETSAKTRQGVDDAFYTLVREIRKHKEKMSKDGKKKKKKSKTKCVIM
Sequence of ternary complex comprising RAS and CypA; KRAS^G12D (P62937 whole entry): as the sequence (P62937 whole entry) above
Method: (§3) To evaluate the ability of the test compounds to induce the formation of a ternary complex comprising RAS and CypA, we employed a Bio-layer Interferometry (BLI) method (Octet R8) to monitor the binding kinetics among the compounds, RAS, and CypA, and to calculate the affinity of the ternary complex. GMPPNP was first incubated with RAS protein to load GMPPNP onto RAS. His-tagged RAS proteins with different mutations were then immobilized on NTA sensors, followed by baseline equilibration for 120 seconds in the assay buffer (20 mM HEPES, pH 7.4, 150 mM NaCl, 5 mM MgCl2, 1 mM TCEP, 5 μM GMPPNP, 0.01% Tween 20). The sensors were subsequently exposed to buffer containing various concentrations of the compounds and a fixed concentration of CypA, and the association phase of ternary complex formation was monitored in real time. Once binding reached a plateau, the sensors were transferred to compound- and CypA-free buffer to measure the dissociation phase. To ensure accuracy, DMSO normalization was performed, buffer composition was optimized to reduce non-specific binding, and both negative and positive controls were employed to verify assay specificity. Data were processed using Octet Analysis Studio 13.0, analyzed using a 1:1 binding model, and the association rate constant (ka), dissociation rate constant (kdis), and equilibrium dissociation constant (KD2) were calculated.

[2] = biological target: ternary complex comprising RAS and CypA; KRAS^G12V (Homo sapiens, UniProt P01116+P62937, G12V); test: Ternary complex binding assay (BLI), KRAS G12V; conditions: GMPPNP-loaded KRAS^G12V, fixed concentration of CypA, pH 7.4, read-out: KD2 (ternary complex equilibrium dissociation constant)
Sequence of ternary complex comprising RAS and CypA; KRAS^G12V (P01116 1-188 isoform P01116-2 G12V): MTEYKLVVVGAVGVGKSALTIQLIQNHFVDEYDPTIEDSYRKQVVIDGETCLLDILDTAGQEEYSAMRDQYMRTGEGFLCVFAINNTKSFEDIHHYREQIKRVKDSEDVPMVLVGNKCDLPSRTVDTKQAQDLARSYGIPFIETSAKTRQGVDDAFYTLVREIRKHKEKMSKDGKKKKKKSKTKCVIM
Sequence of ternary complex comprising RAS and CypA; KRAS^G12V (P62937 whole entry): as the sequence (P62937 whole entry) above
Method: as §3

[3] = biological target: ternary complex comprising RAS and CypA; KRAS^WT (Homo sapiens, UniProt P01116+P62937); test: Ternary complex binding assay (BLI), KRAS WT; conditions: GMPPNP-loaded KRAS^WT, fixed concentration of CypA, pH 7.4, read-out: KD2 (ternary complex equilibrium dissociation constant)
Sequence of ternary complex comprising RAS and CypA; KRAS^WT (P01116 1-188 isoform P01116-2): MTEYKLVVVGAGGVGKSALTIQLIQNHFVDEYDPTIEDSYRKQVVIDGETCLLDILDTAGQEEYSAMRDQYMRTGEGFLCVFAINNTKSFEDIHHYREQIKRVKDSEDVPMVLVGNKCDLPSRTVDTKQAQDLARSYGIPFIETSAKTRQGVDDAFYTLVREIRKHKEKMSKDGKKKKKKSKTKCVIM
Sequence of ternary complex comprising RAS and CypA; KRAS^WT (P62937 whole entry): as the sequence (P62937 whole entry) above
Method: as §3

SMILES: CCn1c(-c2cc(-c3nc(C4CCN(C5COC5)CC4)n(C)n3)cnc2[C@H](C)OC)c2c3cc(ccc31)-c1csc(n1)C[C@H](NC(=O)[C@H]1[C@H](C)[C@@H]1C)C(=O)N1CCC[C@H](N1)C(=O)OCC(C)(C)C2 (atropisomer, axis not shown) [Compound 4, (1r,2R,3S)—N-((6^3S,4S,Z)-1^1-ethyl-1^2-(2-((S)-1-methoxyethyl)-5-(1-methyl-5-(1-(oxetan-3-yl)piperidin-4-yl)-1H-1,2,4-triazol-3-yl)pyridin-3-yl)-10,10-dimethyl-5,7-dioxo-6^1,6^2,6^3,6^4,6^5,6^6-hexahydro-1^1H-8-oxa-2(4,2)-thiazola-1(5,3)-indola-6(1,3)-pyridazinacycloundecaphane-4-yl)-2,3-dimethylcyclopropane-1-carboxamide]
- IC50 (AsPC-1): 0.21 nM
- IC50 (SW480): 0.52 nM
- IC50 (H358): 0.001 nM
- IC50 (HepG2): 0.06 nM
- IC50 (HCT116): 2.8 nM
- IC50 (PSN1): 0.07 nM
- IC50 (MV411): 0.35 nM
- Kd (cyclophilin A (CypA)): 0.81 nM
- kon (cyclophilin A (CypA)): 150000 M⁻¹ s⁻¹
- koff (cyclophilin A (CypA)): 0.00012 s⁻¹
- Kd [1]: 43 nM
- Kd [2]: 25 nM
- Kd [3]: 27 nM

SMILES: CO[C@@H](C)c1ncc(-c2nnc(C3CCN(C4COC4)CC3)o2)cc1-c1c2c3cc(ccc3n1CC(F)(F)F)-c1csc(n1)C[C@H](NC(=O)[C@H]1C[C@@H]1C)C(=O)N1CCC[C@H](N1)C(=O)OCC(C)(C)C2 (atropisomer, axis not shown) [Compound 5, (1S,2S)—N-((6^3S,4S,Z)-1^2-(2-((S)-1-methoxyethyl)-5-(5-(1-(oxetan-3-yl)piperidin-4-yl)-1,3,4-oxadiazol-2-yl)pyridin-3-yl)-10,10-dimethyl-5,7-dioxo-1^1-(2,2,2-trifluoroethyl)-6^1,6^2,6^3,6^4,6^5,6^6-hexahydro-1^1H-8-oxa-2(4,2)-thiazola-1(5,3)-indola-6(1,3)-pyridazinacycloundecaphane-4-yl)-2-methylcyclopropane-1-carboxamide]
- IC50 (AsPC-1): 0.08 nM
- IC50 (SW480): 0.11 nM
- IC50 (H358): 0.034 nM
- IC50 (HepG2): 0.66 nM
- IC50 (HCT116): 0.02 nM
- IC50 (PSN1): 0.03 nM
- IC50 (MV411): 0.66 nM
- Kd (cyclophilin A (CypA)): 8.6 nM
- kon (cyclophilin A (CypA)): 200000 M⁻¹ s⁻¹
- koff (cyclophilin A (CypA)): 0.0017 s⁻¹
- Kd [1]: 27 nM
- Kd [2]: 27 nM
- Kd [3]: 17 nM

SMILES: CCn1c(-c2cc(-c3nnc(C4CCN(C5CN(C(C)C)C5)CC4)o3)cnc2[C@H](C)OC)c2c3cc(ccc31)-c1csc(n1)C[C@H](NC(=O)[C@H]1C[C@@H]1C)C(=O)N1CCC[C@H](N1)C(=O)OCC(C)(C)C2 (atropisomer, axis not shown) [Compound 7, (1S,2S)—N-((6^3S,4S,Z)-1^1-ethyl-1^2-(5-(5-(1-(1-isopropylazetidin-3-yl)piperidin-4-yl)-1,3,4-oxadiazol-2-yl)-2-((S)-1-methoxyethyl)pyridin-3-yl)-10,10-dimethyl-5,7-dioxo-6^1,6^2,6^3,6^4,6^5,6^6-hexahydro-1^1H-8-oxa-2(4,2)-thiazola-1(5,3)-indola-6(1,3)-pyridazinacycloundecaphane-4-yl)-2-methylcyclopropane-1-carboxamide]
- IC50 (AsPC-1): 0.03 nM
- IC50 (SW480): 0.14 nM
- IC50 (H358): 0.004 nM
- IC50 (HepG2): 0.05 nM
- IC50 (HCT116): 0.7 nM
- IC50 (PSN1): 0.05 nM
- IC50 (MV411): 0.49 nM
- Kd (cyclophilin A (CypA)): 16 nM
- kon (cyclophilin A (CypA)): 230000 M⁻¹ s⁻¹
- koff (cyclophilin A (CypA)): 0.0037 s⁻¹
- Kd [1]: 19 nM

SMILES: CO[C@@H](C)c1ncc(-c2nnc(C3CCN(C4CN(C(C)C)C4)CC3)o2)cc1-c1c2c3cc(ccc3n1CC(F)(F)F)-c1csc(n1)C[C@H](NC(=O)[C@H]1[C@H](C)[C@@H]1C)C(=O)N1CCC[C@H](N1)C(=O)OCC(C)(C)C2 (atropisomer, axis not shown) [Compound 10, (1r,2R,3S)—N-((6^3S,4S,Z)-1^2-(5-(5-(1-(1-isopropylazetidin-3-yl)piperidin-4-yl)-1,3,4-oxadiazol-2-yl)-2-((S)-1-methoxyethyl)pyridin-3-yl)-10,10-dimethyl-5,7-dioxo-1^1-(2,2,2-trifluoroethyl)-6^1,6^2,6^3,6^4,6^5,6^6-hexahydro-1^1H-8-oxa-2(4,2)-thiazola-1(5,3)-indola-6(1,3)-pyridazinacycloundecaphane-4-yl)-2,3-dimethylcyclopropane-1-carboxamide]
- IC50 (AsPC-1): 0.005 nM
- IC50 (SW480): 0.01 nM
- IC50 (H358): 0.021 nM
- IC50 (HepG2): 0.1 nM
- IC50 (HCT116): 0.14 nM
- IC50 (PSN1): 0.07 nM
- IC50 (MV411): 0.42 nM
- ka (association rate constant) (cyclophilin A (CypA)): 2.1E+05 1/[M*s]
- Kd (cyclophilin A (CypA)): 2.7 nM
- koff (cyclophilin A (CypA)): 0.00057 s⁻¹
- Kd [1]: 17 nM
- Kd [2]: 12 nM
- Kd [3]: 9.3 nM
